Measurements taken from US8987250B2 (Gilead Sciences, Inc., priority 2012, dated 2015).

These compounds were tested on HIV-IIIb (assay: Test A: Antiviral Assay in MT4 Cells). Conditions: Human immunodeficiency virus 1, IIIB, MT4, 120 h.
Assay type: cell-based
Method in brief: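 MT-4 cells pre-infected with HIV-IIIb (0.004 m.o.i.) at 37 °C, then exposed to 3-fold serial compound dilutions (10 concentrations, quadruplicate) in RPMI 1640/10% FBS. After 5 days at 37 °C, viability read by CellTiter-Glo luminescence.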
Work on Cc1cc2nc(N3CCn4c(nnc4C(F)(F)F)C3)sc2c(-c2ccc(Cl)cc2)c1[C@H](OC(C)(C)C)C(=O)O [Compound 250, (S)-2-tert-butoxy-2-(7-(4-chlorophenyl)-5-methyl-2-(3-(trifluoromethyl)-5,6-dihydro-[1,2,4]triazolo[4,3-a]pyrazin-7(8H)-yl)benzo[d]thiazol-6-yl)acetic acid] yielded an EC50 of 0.235 µM.

Same assay, conditions: Human immunodeficiency virus 1, IIIB, MT4, 120 h, Table 2; MT-4 cells infected with HIV-IIIb, 5 days of incubation, CellTiter-Glo; read-out: EC50
Cc1cc2nc(-c3ccnc(-c4cc5c(C)nn(C)c5cn4)c3)sc2c(-c2ccc(Cl)cc2)c1[C@H](OC(C)(C)C)C(=O)O [Compound 234, (S)-2-tert-butoxy-2-(7-(4-chlorophenyl)-2-(2-(1,3-dimethyl-1H-pyrazolo[3,4-c]pyridin-5-yl)pyridin-4-yl)-5-methylbenzo[d]thiazol-6-yl)acetic acid] was tested, and the EC50 was 0.013 µM. Compound Cc1cc2nc(-c3cc4c(C)nn(C)c4cn3)sc2c(-c2ccc(Cl)cc2)c1[C@H](OC(C)(C)C)C(=O)O [Compound 235, (S)-2-tert-butoxy-2-(7-(4-chlorophenyl)-2-(1,3-dimethyl-1H-pyrazolo[3,4-c]pyridin-5-yl)-5-methylbenzo[d]thiazol-6-yl)acetic acid] has an EC50 of 0.014 µM. Cc1cc2nc(-c3ccnc(-c4cccc5c4CC(=O)N5C)c3)sc2c(-c2ccc(Cl)cc2)c1[C@H](OC(C)(C)C)C(=O)O [Compound 236, (S)-2-tert-butoxy-2-(7-(4-chlorophenyl)-5-methyl-2-(2-(1-methyl-2-oxoindolin-4-yl)pyridin-4-yl)benzo[d]thiazol-6-yl)acetic acid] gave an EC50 of 0.031 µM. Compound Cc1cc2nc(-c3ccnc(-c4ccc5c(c4)CC(=O)N5C)c3)sc2c(-c2ccc(Cl)cc2)c1[C@H](OC(C)(C)C)C(=O)O [Compound 237, (S)-2-tert-butoxy-2-(7-(4-chlorophenyl)-5-methyl-2-(2-(1-methyl-2-oxoindolin-5-yl)pyridin-4-yl)benzo[d]thiazol-6-yl)acetic acid] has an EC50 of 0.01 µM. For Cc1cc2nc(-c3ccc4c(c3)CC(=O)N4C)sc2c(-c2ccc(Cl)cc2)c1[C@H](OC(C)(C)C)C(=O)O [Compound 239, (S)-2-tert-butoxy-2-(7-(4-chlorophenyl)-5-methyl-2-(1-methyl-2-oxoindolin-5-yl)benzo[d]thiazol-6-yl)acetic acid], the EC50 was 0.026 µM. Compound Cc1cc2nc(-c3ccc4c(c3)CC(=O)N4)sc2c(-c2ccc(Cl)cc2)c1[C@H](OC(C)(C)C)C(=O)O [Compound 240, (S)-2-tert-butoxy-2-(7-(4-chlorophenyl)-5-methyl-2-(2-oxoindolin-5-yl)benzo[d]thiazol-6-yl)acetic acid] has an EC50 of 0.076 µM. Cc1cc2nc(-c3ccnc(N4Cc5ccncc5C4=O)c3)sc2c(-c2ccc(Cl)cc2)c1[C@H](OC(C)(C)C)C(=O)O [Compound 241, (S)-2-tert-butoxy-2-(7-(4-chlorophenyl)-5-methyl-2-(2-(3-oxo-1H-pyrrolo[3,4-c]pyridin-2(3H)-yl)pyridin-4-yl)benzo[d]thiazol-6-yl)acetic acid] showed an EC50 of 0.003 µM. In the case of Cc1ccc2c(c1)CCN2c1nc2cc(C)c([C@H](OC(C)(C)C)C(=O)O)c(-c3ccc(Cl)cc3)c2s1 [Compound 243, (S)-2-tert-butoxy-2-(7-(4-chlorophenyl)-5-methyl-2-(5-methylindolin-1-yl)benzo[d]thiazol-6-yl)acetic acid], the EC50 is reported as 0.424 µM. Compound Cc1cc2nc(-c3ccnc(N4CCc5cnccc54)c3)sc2c(-c2ccc(Cl)cc2)c1[C@H](OC(C)(C)C)C(=O)O [Compound 245, (S)-2-tert-butoxy-2-(7-(4-chlorophenyl)-2-(2-(2,3-dihydro-1H-pyrrolo[3,2-c]pyridin-1-yl)pyridin-4-yl)-5-methylbenzo[d]thiazol-6-yl)acetic acid] has an EC50 of 0.009 µM. Cc1cc2nc(-c3nc(N4CCN(C(C)C)CC4)cs3)sc2c(-c2ccc(Cl)cc2)c1[C@H](OC(C)(C)C)C(=O)O [Compound 246, (S)-2-tert-butoxy-2-(7-(4-chlorophenyl)-2-(4-(4-isopropylpiperazin-1-yl)thiazol-2-yl)-5-methylbenzo[d]thiazol-6-yl)acetic acid] was tested, and the EC50 was 0.009 µM. For Cc1cc2nc(-c3nc(N4CCN(C)CC4)cs3)sc2c(-c2ccc(Cl)cc2)c1[C@H](OC(C)(C)C)C(=O)O [Compound 247], the EC50 was 0.01 µM. Cc1cc2nc(-c3ccc4c(c3)CN(C)C4=O)sc2c(-c2ccc(Cl)cc2)c1[C@H](OC(C)(C)C)C(=O)O [Compound 248, (S)-2-tert-butoxy-2-(7-(4-chlorophenyl)-5-methyl-2-(2-methyl-1-oxoisoindolin-5-yl)benzo[d]thiazol-6-yl)acetic acid] gave an EC50 of 0.013 µM. With Cc1cc2nc(-c3cnc4c(c3)c(-c3cccnc3)cn4C)sc2c(-c2ccc(Cl)cc2)c1[C@H](OC(C)(C)C)C(=O)O [Compound 249, (S)-2-tert-butoxy-2-(7-(4-chlorophenyl)-5-methyl-2-(1-methyl-3-(pyridin-3-yl)-1H-pyrrolo[2,3-b]pyridin-5-yl)benzo[d]thiazol-6-yl)acetic acid] the EC50 was 0.007 µM. Work on Cc1cc2nc(-c3ccc4c(c3)c(C)nn4C)sc2c(-c2ccc(Cl)cc2)c1[C@H](OC(C)(C)C)C(=O)O [Compound 254, (S)-2-tert-butoxy-2-(7-(4-chlorophenyl)-2-(1,3-dimethyl-1H-indazol-5-yl)-5-methylbenzo[d]thiazol-6-yl)acetic acid] yielded an EC50 of 0.008 µM. Cc1cc2nc(-c3cc(-c4ccc5c(c4)c(C)nn5C)nc(N4CCN(C)CC4)c3)sc2c(-c2ccc(Cl)cc2)c1[C@H](OC(C)(C)C)C(=O)O [Compound 255, (S)-2-tert-butoxy-2-(7-(4-chlorophenyl)-2-(2-(1,3-dimethyl-1H-indazol-5-yl)-6-(4-methylpiperazin-1-yl)pyridin-4-yl)-5-methylbenzo[d]thiazol-6-yl)acetic acid] gave an EC50 of 0.012 µM. Cc1cc2nc(-c3ccc4c(c3)C(C)(C)C(=O)N4C)sc2c(-c2ccc(Cl)cc2)c1[C@H](OC(C)(C)C)C(=O)O [Compound 256, (S)-2-tert-butoxy-2-(7-(4-chlorophenyl)-5-methyl-2-(1,3,3-trimethyl-2-oxoindolin-5-yl)benzo[d]thiazol-6-yl)acetic acid] gave an EC50 of 0.009 µM. For Cc1cc2nc(-c3ccc4c(c3)c(N(C)C)nn4C)sc2c(-c2ccc(Cl)cc2)c1[C@H](OC(C)(C)C)C(=O)O [Compound 258, (S)-2-tert-butoxy-2-(7-(4-chlorophenyl)-2-(3-(dimethylamino)-1-methyl-1H-indazol-5-yl)-5-methylbenzo[d]thiazol-6-yl)acetic acid], the EC50 was 0.013 µM. In the case of Cc1cc2nc(-c3ccc4c(N5CCN(C)CC5)nn(C)c4c3)sc2c(-c2ccc(Cl)cc2)c1[C@H](OC(C)(C)C)C(=O)O [Compound 259, (S)-2-tert-butoxy-2-(7-(4-chlorophenyl)-5-methyl-2-(1-methyl-3-(4-methylpiperazin-1-yl)-1H-indazol-6-yl)benzo[d]thiazol-6-yl)acetic acid], the EC50 is reported as 0.012 µM. Cc1cc2nc(-c3ccc4c(c3)c(C3CC3)nn4C)sc2c(-c2ccc(Cl)cc2)c1[C@H](OC(C)(C)C)C(=O)O [Compound 264, (S)-2-tert-butoxy-2-(7-(4-chlorophenyl)-2-(3-cyclopropyl-1-methyl-1H-indazol-5-yl)-5-methylbenzo[d]thiazol-6-yl)acetic acid] gave an EC50 of 0.017 µM. With Cc1cc2nc(-c3ccc4nn(C)c(C)c4c3)sc2c(-c2ccc(Cl)cc2)c1[C@H](OC(C)(C)C)C(=O)O [Compound 265, (S)-2-tert-butoxy-2-(7-(4-chlorophenyl)-2-(2,3-dimethyl-2H-indazol-5-yl)-5-methylbenzo[d]thiazol-6-yl)acetic acid] the EC50 was 0.015 µM. Cc1cc2nc(-c3ccc4c(N)nn(C)c4c3)sc2c(-c2ccc(Cl)cc2)c1[C@H](OC(C)(C)C)C(=O)O [Compound 266, (S)-2-(2-(3-amino-1-methyl-1H-indazol-6-yl)-7-(4-chlorophenyl)-5-methylbenzo[d]thiazol-6-yl)-2-tert-butoxyacetic acid] gave an EC50 of 0.01 µM. Cc1cc2nc(-c3ccc4c(C5CCN(C)CC5)nn(C)c4c3)sc2c(-c2ccc(Cl)cc2)c1[C@H](OC(C)(C)C)C(=O)O [Compound 267, (S)-2-tert-butoxy-2-(7-(4-chlorophenyl)-5-methyl-2-(1-methyl-3-(1-methylpiperidin-4-yl)-1H-indazol-6-yl)benzo[d]thiazol-6-yl)acetic acid] was tested, and the EC50 was 0.011 µM. With Cc1cc2nc(-c3ccc4c(c3)c(C3CCN(C)CC3)nn4C)sc2c(-c2ccc(Cl)cc2)c1[C@H](OC(C)(C)C)C(=O)O [Compound 268, (S)-2-tert-butoxy-2-(7-(4-chlorophenyl)-5-methyl-2-(1-methyl-3-(1-methylpiperidin-4-yl)-1H-indazol-5-yl)benzo[d]thiazol-6-yl)acetic acid] the EC50 was 0.012 µM. With Cc1cc2nc(-c3ccc4c(c3)c(N3CCN(C(C)C)CC3)nn4C)sc2c(-c2ccc(Cl)cc2)c1[C@H](OC(C)(C)C)C(=O)O [Compound 269, (S)-2-tert-butoxy-2-(7-(4-chlorophenyl)-2-(3-(4-isopropylpiperazin-1-yl)-1-methyl-1H-indazol-5-yl)-5-methylbenzo[d]thiazol-6-yl)acetic acid] the EC50 was 0.012 µM. Cc1cc(C)n(-c2cccc(-c3nc4cc(C)c([C@H](OC(C)(C)C)C(=O)O)c(-c5ccc(Cl)cc5)c4s3)c2)n1 [Compound 272, (S)-2-tert-butoxy-2-(7-(4-chlorophenyl)-2-(3-(3,5-dimethyl-1H-pyrazol-1-yl)phenyl)-5-methylbenzo[d]thiazol-6-yl)acetic acid] was tested, and the EC50 was 0.078 µM. Compound Cc1cc2nc(-n3ccnc(-c4ccc5c(cnn5C)c4)c3=O)sc2c(-c2ccc(Cl)cc2)c1[C@H](OC(C)(C)C)C(=O)O [Compound 273, (S)-2-tert-butoxy-2-(7-(4-chlorophenyl)-5-methyl-2-(3-(1-methyl-1H-indazol-5-yl)-2-oxopyrazin-1(2H)-yl)benzo[d]thiazol-6-yl)acetic acid] has an EC50 of 0.053 µM. Cc1cc2nc(N3CCN(C)C(c4ccc5c(cnn5C)c4)C3=O)sc2c(-c2ccc(Cl)cc2)c1[C@H](OC(C)(C)C)C(=O)O (stereo partly drawn) [Compound 274, (2S)-2-tert-butoxy-2-(7-(4-chlorophenyl)-5-methyl-2-(4-methyl-3-(1-methyl-1H-indazol-5-yl)-2-oxopiperazin-1-yl)benzo[d]thiazol-6-yl)acetic acid] was tested, and the EC50 was 0.031 µM.
